Test results taken from patent EP4682141A1, “TRICYCLIC COMPOUND” (ONO Pharmaceutical Co., Ltd., priority 2023, dated 2024).

What was measured:
EP1 = target: T1, EP1 (Homo sapiens, UniProt P34995); assay: agonist activity on human EP1 receptor (intracellular calcium concentration, EP1-CHO cells); assay type: cell-based
T1 construct: expressed in transfected cells; host or cells: CHO (EP1-CHO)
T1 sequence (P34995 1-402): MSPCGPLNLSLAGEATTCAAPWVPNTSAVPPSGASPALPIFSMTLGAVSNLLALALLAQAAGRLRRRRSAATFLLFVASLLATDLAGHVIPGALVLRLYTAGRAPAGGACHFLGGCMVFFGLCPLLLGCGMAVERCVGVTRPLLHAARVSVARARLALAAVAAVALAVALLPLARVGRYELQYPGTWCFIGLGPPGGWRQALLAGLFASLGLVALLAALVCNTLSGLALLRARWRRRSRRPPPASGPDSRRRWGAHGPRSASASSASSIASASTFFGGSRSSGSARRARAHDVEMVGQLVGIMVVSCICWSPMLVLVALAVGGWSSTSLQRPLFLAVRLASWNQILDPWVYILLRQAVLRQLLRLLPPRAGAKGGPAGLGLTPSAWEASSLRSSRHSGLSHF
Outline: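 Calcium 6 dye loaded 1 h at room temperature in HBSS with 1% human serum albumin, 2 µmol/L indomethacin, 2.5 mmol/L probenecid, pH 7.4; agonists then added at various concentrations. Intracellular calcium read by fluorescence (ex 480/em 540 nm) in CHO cells expressing human EP1 or Chem1 cells expressing human EP3.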

[1] = test system: rat 5/6 kidney-removed model; assay: in vivo drug efficacy on renal damage in rat 5/6 kidney-removed model; set-up: species or system Jcl: Wistar (Wistar) rats; conditions: after 8 weeks from the start of administration
From the text: The obtained urine sample was centrifuged, and the supernatant was subjected to measurement.

EC50 (EP1) | Structure (SMILES) | Amount of albumin excreted in urine mean ([1]; 0.01 mg/kg orally once a day for 8 weeks) | Amount of albumin excreted in urine mean ([1]; 0.03 mg/kg orally once a day for 8 weeks)
3.5 µM | Cc1c(C(=O)O)ccc2c1O[C@H]1C[C@@H](O)[C@H](/C=C/C[C@@](C)(O)CCCC(F)(F)F)[C@H]1CC2 [Example 12, (1R,2R,3aS,10aR)-2-hydroxy-5-methyl-1-[(1E,4S)-8,8,8-trifluoro-4-hydroxy-4-methyl-1-octen-1-yl]-2,3,3a,9,10,10a-hexahydro-1H-benzo[b]cyclopenta[f]oxepine-6-carboxylic acid] | 66.09 mg/24 h | 44.16 mg/24 h
> 10 µM | CC(C)(c1ccccc1)C(O)/C=C/[C@H]1CC[C@@H]2Oc3c(ccc(C(=O)O)c3F)CC[C@@H]21 (stereo partly drawn) [Example 25-7, (1R,3aS,10aR)-5-fluoro-1-[(1E,3ξ)-3-hydroxy-4-methyl-4-phenyl-1-penten-1-yl]-2,3,3a,9,10,10a-hexahydro-1H-benzo[b]cyclopenta[f]oxepine-6-carboxylic acid] | – | –
